Measured values as given in patent publication US20210315841A1, “CYCLOBENZAPRINE TREATMENT FOR SEXUAL DYSFUNCTION” (TONIX PHARMACEUTICALS HOLDING CORP., priority 2020, published 2021).
Where a name gives a salt, the structure may show the parent alone.

What was measured:
participants with PTSD [1] = conditions: 5.6 mg dose, all three trials (Phase 2 and two Phase 3)
Procedure: (§1) Three randomized, placebo-controlled and double-blind clinical trials of the above described 5.6 mg cyclobenzaprine-HCl sublingual formulation (2×2.8 mg tablets) were performed, a Phase 2 study and a Phase 3 study in military-related PTSD, and a Phase 3 study in predominantly civilian PTSD. […] The present retrospective analysis examined the activity of the cyclobenzaprine-HCl sublingual formulation on the Changes in Sexual Functioning Questionnaire short form (CSFQ-14) in the two Phase 3 studies.

[2] = test system: participants with military-related PTSD; conditions: Phase 2 study, drug and placebo groups
Procedure: as §1

[3] = test system: females with predominantly civilian PTSD; conditions: female completers, 5.6 mg dose (N=58) vs placebo (N=55), 12 weeks
Procedure: as §1
(§2) In the Phase 3 study in predominantly civilian PTSD, the inclusion criteria were broadened to include civilian participants with current PTSD, as determined by the CAPS-5. Accordingly, this study included 94% civilian trauma with a minimum baseline severity score of >33 on the CAPS-5. […] Thus, analyses were conducted on the interim analysis sample of 252 participants in the military Phase 3 study (89% male [n=225 M; n=27 F]; 100% military PTSD) and […] subjects in the civilian Phase 3 study (79% female [n=129 F; n=34 M]; 94% civilian PTSD).
(§3) The CSFQ-14 is a validated 14-item measure (Keller, McGarvey, Clayton, 2006) that has male and female versions which were analyzed separately. In addition to a total sexual functioning score, there are five sub-scales: desire/frequency, desire/interest, arousal/excitement, orgasm/complete, and pleasure. The items range on 5-point Likert scale from (never) to (every day). Higher scores reflect greater levels of sexual functioning.

participants with PTSD [4] = conditions: 5.6 mg sublingual dose, both Phase 3 studies
Procedure: as §1, §2

[5] = test system: participants with military-related PTSD
Procedure: (§4) Methods: In this 12-week, multicenter, adaptive design, randomized controlled fixed-dose trial, 5.6 mg cyclobenzaprine-HCl (2×2.8 mg sublingual tablets, comprising a 75%±2% cyclobenzaprine-HCl and 25%±2% mannitol eutectic and a potassium phosphate dibasic anhydrous basifying agent) taken daily at bedtime was compared to placebo for the treatment of PTSD at 45 U.S. sites. […] A pre-planned interim analysis was conducted when about half the originally planned sample of 550 participants had outcome data.
(§5) The modified intention-to-treat (mITT) population, which included all randomized subjects with at least one post-baseline CAPS-5, included 125 participants treated with 5.6 mg dose per day the above cyclobenzaprine-HCl sublingual formulation and 127 participants on placebo were studied.

[6] = test system: females with military-related PTSD; conditions: female subgroup (10 active, 17 placebo), 5.6 mg per day sublingual, after 12 weeks of treatment
Procedure: as §4, §5

[7] = test system: females with military-related PTSD; conditions: 5.6 mg dose (N=8) vs placebo (N=16), 12 weeks
Procedure: as §4, §5
Sexual functioning was measured by Changes in Sexual Functioning Questionnaire short-form (CSFQ-14) which is a validated 14-item measure (Keller, McGarvey, Clayton, 2006). Parallel gender-specific versions are administered to males (CSFQ-14-M) and females (CSFQ-14-F), and each sex was analyzed separately. In addition to a total sexual functioning score, there are five sub-scales: desire/frequency, desire/interest, arousal/excitement, orgasm/complete, and pleasure. The scales range from (never) to (every day) and higher scores reflect greater levels of sexual functioning.
as §2, §3

[8] = 5.6 mg sublingual daily, military Phase 3 study

Compound: CN(C)CCC=C1c2ccccc2C=Cc2ccccc21 [cyclobenzaprine-HCl]
- activity on clinician- and patient-rated global PTSD symptoms (CGI and PGIC) (participants with PTSD [1]): encouraging activity
- rates of adverse events related to sexual function [2]: very low rates
- CSFQ-14-F arousal/excitement subscale, Hedges' g effect size vs placebo [3]: 0.33
- CSFQ-14-F desire/frequency subscale, Hedges' g effect size vs placebo [3]: 0.21
- CSFQ-14-F desire/interest subscale, Hedges' g effect size vs placebo [3]: 0.23
- CSFQ-14-F orgasm/completion subscale, Hedges' g effect size vs placebo [3]: 0.29
- CSFQ-14-F pleasure subscale, Hedges' g effect size vs placebo [3]: 0.19
- CSFQ-14-F total score, Hedges' g effect size vs placebo ([3]; p=0.07): 0.37
- severity of oral hypoaesthesia (most frequent AE) (participants with PTSD [4]): never rated as severe
- severity of somnolence (most common systemic AE) (participants with PTSD [4]): never rated as severe
- duration of oral hypoaesthesia (tongue/mouth numbness), the most frequent AE, post administration (participants with PTSD [4]; generally transient): < 60 min
- participants with at least one AE leading to study discontinuation ([5]; 5.6 mg dose group, military Phase 3 study (placebo: two)): 8 participants
- duration of oral hypoaesthesia (tongue/mouth numbness), the most frequent AE, post administration ([5]; 5.6 mg sublingual daily at bedtime, military Phase 3 study, generally transient): < 60 min
- severity of oral hypoaesthesia (most frequent AE) [5, 8]: never rated as severe
- severity of somnolence (most common systemic AE) [5, 8]: never rated as severe
- observed mean improvement in CAPS-5 over placebo [6]: −9.1 units
- CSFQ-14-F arousal/excitement subscale, Hedges' g effect size vs placebo [7]: 0.55
- CSFQ-14-F desire/frequency subscale, Hedges' g effect size vs placebo [7]: 0.46
- CSFQ-14-F desire/interest subscale, Hedges' g effect size vs placebo [7]: 0.63
- CSFQ-14-F orgasm/completion scale, effect vs placebo [7]: No effect
- CSFQ-14-F pleasure subscale, Hedges' g effect size vs placebo [7]: 0.54
- CSFQ-14-F total score, Hedges' g effect size vs placebo [7]: 0.49
